Measurements published in US20170156315A1, “METHODS AND COMPOSITIONS OF GRANULE FORMULATIONS” (AgroFresh Inc., priority 2010, published 2017).
Values joined by “and” are separate entries in the source; they are usually repeats but may differ in a detail not shown here. Equal values may be shown once.

System: rice plants
Assay: Treatment of rice plants in open fields, yield
Type: in vivo
Conditions: rice field trial, single application of 50 g a.i./hectare 1-MCP with sample 7-3
Source text: Assessment of Improvement to Crop Yield—Each treated plot is compared to an appropriate untreated control plot. The outcome is reported as “DY %” (Delta Yield Percent), which is defined as follows:
where YT=yield of the treated plot, and where YU=yield of the untreated plot. For example, DY of 10% means the treated plot has yield that is 10% higher than the untreated plot. Negative Delta Yield means that the treated rice has lower yield than the untreated crop.
Granule formulations of samples 7-3 and 7-4 are used to treat rice plants in open fields. Typical amount of 1-MCP treated range from 10 g active ingredient (a.i.)/hectare (or 4 g a.i./acre) to 100 g a.i./hectare (or 40 g a.i/acre).
Optimum phonological stages of the rice plants range from maximum tillering through grain filling (for example at least one of: meiosis, complete open of flower, and grain filling). Typically only a single treatment of 1-MCP is performed before harvest, but multiple treatments of 1-MCP before harvest can also be performed. Treatment(s) of 1-MCP on rice plants show yield increase ranging from 14% to 28%, depending on the amount of 1-MCP and stage of treatment(s). Data of a field trial using single application of 50 g a.i./hectare 1-MCP with sample 7-3 (a granule formulation containing 1% 1-MCP) are shown in Table 9

## CC1=CC1 [Sample 1-MCP, 1-methylcyclopropene]
Individual treatments 8-1 to 8-4
  Yield (kg/ha): 7340 kg/ha and 7450 kg/ha and 7865 kg/ha and 7715 kg/ha
Mean of treatments 8-1 to 8-4
  Mean (kg/ha): 7592.5 kg/ha
